Among the data in US8669271B2 (Boehringer Ingelheim International GmbH, priority 2010, dated 2014) are EC50 values, retold here.

In the assay the target is T1, human GPR119 (Homo sapiens, UniProt Q8TDV5).
T1 construct: expression vector for human GPR119 cDNA (Acc. No. NP_848566); expressed in transfected cells
T1 sequence (Q8TDV5 1-335): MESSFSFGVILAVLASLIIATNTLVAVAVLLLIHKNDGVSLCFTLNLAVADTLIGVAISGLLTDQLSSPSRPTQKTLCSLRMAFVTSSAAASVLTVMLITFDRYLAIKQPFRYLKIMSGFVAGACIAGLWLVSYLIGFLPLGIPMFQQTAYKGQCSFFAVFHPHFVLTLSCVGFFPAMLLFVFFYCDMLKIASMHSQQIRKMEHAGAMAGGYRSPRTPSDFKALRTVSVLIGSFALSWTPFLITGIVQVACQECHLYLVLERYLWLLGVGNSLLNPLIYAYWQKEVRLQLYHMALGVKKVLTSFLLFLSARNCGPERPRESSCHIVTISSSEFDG
Nature of the assay: AlphaScreen cAMP assay in Min-6/hGPR119 cells (activation of GPR119, intracellular cAMP). The format is cell-based. The conditions noted are these: MIN6 cells stably transfected with human GPR119; cAMP by AlphaScreen after 45 minutes incubation at room temperature. The procedure, abridged: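 MIN6 cells stably expressing human GPR119, seeded 24 h before treatment; compounds applied 45 min at ~20 °C in Hepes-buffered saline pH 7.4 with 0.5 mM IBMX, 0.1% BSA, 1% DMSO final. Intracellular cAMP measured by AlphaScreen.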
Background: Bead proximity is the source of the signal in Alpha formats.
The EC50 is the midpoint of the concentration-response curve. Read a low EC50 as an effect from little substance. Compound `CC(C)OC(=O)N1CCC(C2Cc3cc(-c4ccc(S(C)(=O)=O)cc4)ncc3O2)CC1` (stereo not shown) [Example 63, 4-[5-(4-Methanesulfonyl-phenyl)-2,3-dihydro-furo[2,3-c]pyridin-2-yl]-piperidine-1-carboxylic acid isopropyl ester] showed an EC50 of 0.018 µM.
On to `Cn1ccc(-c2cc3c(cn2)OC(C2CCN(C(=O)OC(C)(C)C)CC2)C3)cc1=O` (stereo not shown) [Example 57, 4-[5-(1-Methyl-2-oxo-1,2-dihydro-pyridin-4-yl)-2,3-dihydro-furo[2,3-c]pyridin-2-yl]-piperidine-1-carboxylic acid tert-butyl ester], for which the EC50 was determined as 0.685 µM.
For `CC(C)(C)OC(=O)N1CCC(C2(C)Cc3cc(N4CCN(S(C)(=O)=O)CC4)ncc3O2)CC1` (stereo not shown) [Example 79, 4-[5-(4-Methanesulfonyl-piperazin-1-yl)-2-methyl-2,3-dihydro-furo[2,3-c]pyridin-2-yl]-piperidine-1-carboxylic acid tert-butyl ester], a half-maximal response (EC50) required 0.04 µM.
`CC(=O)Nc1ccc(-c2cc3c(cn2)OC(C2CCN(C(=O)OC(C)(C)C)CC2)C3)cc1` (stereo not shown) [Example 67, 4-[5-(4-Acetylamino-phenyl)-2,3-dihydro-furo[2,3-c]pyridin-2-yl]-piperidine-1-carboxylic acid tert-butyl ester] had an EC50 of 0.013 µM.
Compound `COc1ncc(-c2ccc3c(c2)CC(C2CCN(C(=O)OC(C)C)CC2)O3)cn1` (stereo not shown) [Example 108] showed an EC50 of 1.98 µM.
The value for `CC(C)(C)OC(=O)N1CCC(C2Cc3nc(-c4ccc(S(C)(=O)=O)cc4)cnc3O2)CC1` (stereo not shown) [Example 12, 4-[2-(4-Methanesulfonyl-phenyl)-6,7-dihydro-furo[2,3-b]byrazin-6-yl]-piperidine-1-carboxylic acid tert-butyl ester] was 0.253 µM.
The value for `CC(C)(C)OC(=O)N1CCC(C2Cc3cc(-n4ccnc4)ncc3O2)CC1` (stereo not shown) [Example 69, 4-(5-Imidazol-1-yl-2,3-dihydro-furo[2,3-c]pyridin-2-yl)-piperidine-1-carboxylic acid tert-butyl ester] was 0.162 µM.
`CC(=O)Nc1cc(-c2ccc3c(c2)CC(C2CCN(C(=O)OC(C)C)CC2)O3)ccc1C` (stereo not shown) [Example 169] returned an EC50 of 3.14 µM.
The compound `CC(C)OC(=O)N1CCC(C2Cc3cc(-c4ccc(CC(=O)N(C)C5CCCOC5)cc4)ccc3O2)CC1` (stereo not shown) [Example 140] came in with an EC50 of 0.063 µM.
Take `CC(C)OC(=O)N1CCC(C2Cc3cc(-c4ccc(CC(=O)NCCC(C)(C)O)cc4)ccc3O2)CC1` (stereo not shown) [Example 148]: the EC50 came out at 0.098 µM.
Compound `CC(C)(C)OC(=O)N1CCC([C@@H]2Cc3cc(-c4ccc(S(C)(=O)=O)cn4)ccc3O2)CC1` [Example 71, (S)-4-[5-(5-Methanesulfonyl-pyridin-2-yl)-2,3-dihydro-benzofuran-2-yl]-piperidine-1-carboxylic acid tert-butyl ester] showed an EC50 of 0.011 µM.
For `CC(C)OC(=O)N1CCC(C2Cc3cc(-c4ccc5c(cnn5C)c4)ccc3O2)CC1` (stereo not shown) [Example 120], the EC50 turned out to be 0.387 µM.
`CC(C)(C)OC(=O)N1CCC(C2Cc3cc(-c4ccncc4C#N)ncc3O2)CC1` (stereo not shown) [Example 59, 4-[5-(3-Cyano-pyridin-4-yl)-2,3-dihydro-furo[2,3-c]pyridin-2-yl]-piperidine-1-carboxylic acid tert-butyl ester] yielded an EC50 of 0.119 µM.
For `CC(C)OC(=O)N1CCC(C2Cc3cc(-c4ccc(CC(=O)N5CCOCC5)cc4)ccc3O2)CC1` (stereo not shown) [Example 150], the EC50 was found to be 0.062 µM.
Compound `CC(C)OC(=O)N1CCC(C2Cc3cc(-c4cnc(NC(=O)C(C)(C)C)s4)ccc3O2)CC1` (stereo not shown) [Example 173] yielded an EC50 of 0.373 µM.
`Cc1cc(-c2cc3c(cn2)OC(C2CCN(C(=O)OC(C)(C)C)CC2)C3)ccn1` (stereo not shown) [Example 52, 4-[5-(2-Methyl-pyridin-4-yl)-2,3-dihydro-furo[2,3-c]pyridin-2-yl]-piperidine-1-carboxylic acid tert-butyl ester] returned an EC50 of 0.049 µM.
Regarding `CS(=O)(=O)Cc1ccc(-c2cc3c(cn2)OC(C2CCN(C(=O)OC4CCC4)CC2)C3)cc1` (stereo not shown) [Example 61, 4-[5-(4-Methanesulfonylmethyl-phenyl)-2,3-dihydro-furo[2,3-c]pyridin-2-yl]-piperidine-1-carboxylic acid cyclobutyl ester], the EC50 stood at 0.031 µM.
The compound `CC(C)(C)OC(=O)N1CCC(C2Cc3cc(-c4ccncc4)ncc3O2)CC1` (stereo not shown) [Example 41, 4-(5-Pyridin-4-yl-2,3-dihydro-furo[2,3-c]pyridin-2-yl)-piperidine-1-carboxylic acid tert-butyl ester] yielded an EC50 of 0.034 µM.
Consider `CC(C)(C)OC(=O)N1CCC(C2(C)Cc3cc(-c4ccc(CS(C)(=O)=O)cc4)ncc3O2)CC1` (stereo not shown) [Example 80, 4-[5-(4-Methanesulfonylmethyl-phenyl)-2-methyl-2,3-dihydro-furo[2,3-c]pyridin-2-yl]-piperidine-1-carboxylic acid tert-butyl ester], for which the EC50 came to 0.024 µM.
